# Reference: patent US10092575B2, “Substituted thiophene- and furan-fused azolopyrimidine-5-(6H)-one compounds” (DART NEUROSCIENCE (CAYMAN) LTD., priority 2012, dated 2018)
# Molecular target: human PDE1b enzyme (Homo sapiens (Human), UniProt Q01064)
# Assay: PDE1b inhibitory assay (IMAP TR-FRET)
# Conditions: not given
row,Structure (SMILES),EC50 [nM]
1,"O=c1n(Cc2ccccc2Cl)c2sccc2c2ncnn12 [Example 1, 6-(2-Chlorobenzyl)thieno[3,2-e][1,2,4]triazolo[1,5-c]pyrimidin-5(6H)-one]",1000 to 10000
2,"COc1ccc(Cn2c(=O)n3nccc3c3cc(CN4C[C@@H](C)O[C@@H](C)C4)sc32)cc1 [Example 104, 2-(((2S,6R)-2,6-Dimethylmorpholino)methyl)-4-(4-methoxybenzyl)pyrazolo[1,5-c]thieno[3,2-e]pyrimidin-5(4H)-one]",100 to 1000
3,"O=c1n(Cc2ccc(Cl)cc2)c2sc3c(c2c2ncnn12)CCOC3 [Example 87, 6-(4-Chlorobenzyl)-6,8,10,11-tetrahydro-5H-pyrano[4′,3′:4,5]thieno[3,2-e][1,2,4]triazolo[1,5-c]pyrimidin-5-one]",100 to 1000
4,"Cc1cc2c(s1)n(Cc1cccc(Cl)c1)c(=O)n1ncnc21 [Example 16, 6-(3-Chlorobenzyl)-8-methylthieno[3,2-e][1,2,4]triazolo[1,5-c]pyrimidin-5(6H)-one]",1000 to 10000
5,"COc1ccc(Cn2c(=O)n3ncnc3c3c(CN4C[C@@H](C)O[C@@H](C)C4)csc32)cc1 [Example 78, 9-(((2S,6R)-2,6-Dimethylmorpholino)methyl)-6-(4-methoxybenzyl)thieno[3,2-e][1,2,4]triazolo[1,5-c]pyrimidin-5(6H)-one]",100 to 1000
6,"COc1ccc(Cn2c(=O)n3ncnc3c3cc(CN4CC(O)C4)sc32)c(F)c1F [Example 212, 6-(2,3-Difluoro-4-methoxybenzyl)-8-((3-hydroxyazetidin-1-yl)methyl)thieno[3,2-e][1,2,4]triazolo[1,5-c]pyrimidin-5(6H)-one]",100 to 1000
7,"COc1ccc(Cn2c(=O)n3ncnc3c3c4c(sc32)N(C(=O)c2ccccc2)CCC4)cc1OC [Example 176, 8-Benzoyl-6-(3,4-dimethoxybenzyl)-8,9,10,11-tetrahydropyrido[3′,2′:4,5]thieno[3,2-e][1,2,4]triazolo[1,5-c]pyrimidin-5(6H)-one]",1000 to 10000
8,"Cc1cc2c(s1)n(Cc1ccccc1)c(=O)n1ncnc21 [Example 12, 6-Benzyl-8-methylthieno[3,2-e][1,2,4]triazolo[1,5-c]pyrimidin-5(6H)-one]",1000 to 10000
9,"O=c1n(Cc2ccccc2Cl)c2sc(Cc3ccccc3)cc2c2ncnn12 [Example 8, 8-benzyl-6-(2-Chlorobenzyl)thieno[3,2-e][1,2,4]triazolo[1,5-c]pyrimidin-5(6H)-one]",100 to 1000
10,"COc1ccc(Cn2c(=O)n3ncnc3c3c4c(sc32)CN(C(=O)C2CCN(C)C2)CC4)cc1 (centres unmarked) [Example 163, 6-(4-Methoxybenzyl)-9-(1-methylpyrrolidine-3-carbonyl)-8,9,10,11-tetrahydropyrido[4′,3′:4,5]thieno[3,2-e][1,2,4]triazolo[1,5-c]pyrimidin-5(6H)-one]",100 to 1000
11,"COc1ccc(Cn2c(=O)n3ncnc3c3c4c(sc32)CN(Cc2ccc3c(c2)OC(F)(F)O3)CC4)cc1 [Example 114, 9-((2,2-Difluorobenzo[d][1,3]dioxol-5-yl)methyl)-6-(4-methoxybenzyl)-8,9,10,11-tetrahydropyrido[4′,3′:4,5]thieno[3,2-e][1,2,4]triazolo[1,5-c]pyrimidin-5 (6H)-one]",100 to 1000
12,"COc1ccc(Cn2c(=O)n3ncnc3c3cc(CN4CC(Oc5ccccc5F)C4)sc32)cc1 [Example 190, 8-((3-(2-Fluorophenoxy)azetidin-1-yl)methyl)-6-(4-methoxybenzyl)thieno[3,2-e][1,2,4]triazolo[1,5-c]pyrimidin-5(6H)-one]",1000 to 10000
13,"O=c1n(Cc2ccccc2)c2sc(Cc3ccccc3)cc2c2ncnn12 [Example 17, 6,8-Dibenzylthieno[3,2-e][1,2,4]triazolo[1,5-c]pyrimidin-5(6H)-one]",100 to 1000
14,"O=c1n(Cc2ccc(-c3ccccc3)cc2)c2sc3c(c2c2ncnn12)CCCC3 [Example 86, 6-([1,1′-Biphenyl]-4-ylmethyl)-8,9,10,11-tetrahydrobenzo[4,5]thieno[3,2-e][1,2,4]triazolo[1,5-c]pyrimidin-5(6H)-one]",1000 to 10000
15,"Cc1sc2c(c1C)c1ncnn1c(=O)n2Cc1ccc(Cl)cc1 [Example 26, 6-(4-Chlorobenzyl)-8,9-dimethylthieno[3,2-e][1,2,4]triazolo[1,5-c]pyrimidin-5(6H)-one]",100 to 1000
16,"COc1ccc(Cn2c(=O)n3ncnc3c3cc(CN(C)C)sc32)c(F)c1F [Example 214, 6-(2,3-Difluoro-4-methoxybenzyl)-8-((dimethylamino)methyl)thieno[3,2-e][1,2,4]triazolo[1,5-c]pyrimidin-5(6H)-one]",100 to 1000
17,"COc1ccc(Cn2c(=O)n3ncnc3c3cc(CN4CCC(Oc5ccncc5)CC4)sc32)cc1 [Example 185, 6-(4-Methoxybenzyl)-8-((4-(pyridin-4-yloxy)piperidin-1-yl)methyl)thieno[3,2-e][1,2,4]triazolo[1,5-c]pyrimidin-5(6H)-one]",100 to 1000

# Same assay, conditions: negative log of half-maximal molar inhibitory concentration; 200 nM FAM-cAMP; reported as ranges
row,Structure (SMILES),PDE1b (pEC50)
1,"COc1ccc(Cn2c(=O)n3ncnc3c3c(C)c(CN4CC5CC4CO5)sc32)cc1 (centres unmarked) [Example 65, 8-(2-Oxa-5-azabicyclo[2.2.1]heptan-5-ylmethyl)-6-(4-methoxybenzyl)-9-methylthieno[3,2-e][1,2,4]triazolo[1,5-c]pyrimidin-5(6H)-one]",>7
2,"COc1ccc(Cn2c(=O)n3ncnc3c3c4c(sc32)CN(C(=O)C2CC2)CC4)cc1 [Example 159, 9-(Cyclopropanecarbonyl)-6-(4-methoxybenzyl)-8,9,10,11-tetrahydropyrido[4′,3′:4,5]thieno[3,2-e][1,2,4]triazolo[1,5-c]pyrimidin-5(6H)-one]",>7
3,"COc1ccc(Cn2c(=O)n3nccc3c3cc(CN4C[C@@H](C)O[C@@H](C)C4)sc32)cc1 [Example 104, 2-(((2S,6R)-2,6-Dimethylmorpholino)methyl)-4-(4-methoxybenzyl)pyrazolo[1,5-c]thieno[3,2-e]pyrimidin-5(4H)-one]",>7
4,"COc1ccc(Cn2c(=O)n3ncnc3c3c(C)c(CNCC4(C)COC4)sc32)cc1 [Example 50, 6-(4-Methoxybenzyl)-9-methyl-8-((((3-methyloxetan-3-yl)methyl)amino)methyl)thieno[3,2-e][1,2,4]triazolo[1,5-c]pyrimidin-5(6H)-one]",>7
5,"COc1ccc(Cn2c(=O)n3ncnc3c3cc(CN4CCCOCC4)sc32)c(F)c1F [Example 194, 8-((1,4-Oxazepan-4-yl)methyl)-6-(2,3-difluoro-4-methoxybenzyl)thieno[3,2-e][1,2,4]triazolo[1,5-c]pyrimidin-5(6H)-one]",>7
6,"COc1ccc(Cn2c(=O)n3ncnc3c3cc(CN4CCOCC4)sc32)cc1F [Example 207, 6-(3-Fluoro-4-methoxybenzyl)-8-(morpholinomethyl)thieno[3,2-e][1,2,4]triazolo[1,5-c]pyrimidin-5(6H)-one]",>7
7,Cn1ccnc1CN1CCc2c(sc3c2c2ncnn2c(=O)n3Cc2ccc(Cl)cc2F)C1 [Example 131],>7
8,"O=c1n(Cc2ccc(Cl)cc2F)c2sc3c(c2c2ncnn12)CCN(Cc1ccccn1)C3 [Example 130, 6-(4-Chloro-2-fluorobenzyl)-9-(pyridin-2-ylmethyl)-8,9,10,11-tetrahydropyrido[4′,3′:4,5]thieno[3,2-e][1,2,4]triazolo[1,5-c]pyrimidin-5 (6H)-one]",>7
9,"COc1ccc(Cn2c(=O)n3ncnc3c3cc(CN4CCCN(C(C)=O)CC4)sc32)cc1 [Example 193, 8-((4-Acetyl-1,4-diazepan-1-yl)methyl)-6-(4-methoxybenzyl)thieno[3,2-e][1,2,4]triazolo[1,5-c]pyrimidin-5(6H)-one]",>7
10,"O=c1n(Cc2ccc(F)c(Cl)c2)c2sc(CN3CCOCC3)cc2c2ncnn12 [Example 209, 6-(3-Chloro-4-fluorobenzyl)-8-(morpholinomethyl)thieno[3,2-e][1,2,4]triazolo[1,5-c]pyrimidin-5(6H)-one]",>7
11,"COc1c(F)cc(Cn2c(=O)n3ncnc3c3c4c(sc32)COCC4)cc1F [Example 98, 6-(3,5-Difluoro-4-methoxybenzyl)-6,8,10,11-tetrahydro-5H-pyrano[4′,3′:4,5]thieno[3,2-e][1,2,4]triazolo[1,5-c]pyrimidin-5-one]",<5
12,"COc1ccc(Cn2c(=O)n3ncnc3c3c4c(sc32)CN(S(C)(=O)=O)CC4)cc1 [Example 162, 6-(4-Methoxybenzyl)-9-(methylsulfonyl)-8,9,10,11-tetrahydropyrido[4′,3′:4,5]thieno[3,2-e][1,2,4]triazolo[1,5-c]pyrimidin-5(6H)-one]",>7
13,"COc1ccc(Cn2c(=O)n3ncnc3c3c4c(sc32)CN(Cc2nccn2C)CC4)cc1 [Example 122, 6-(4-Methoxybenzyl)-9-((1-methyl-1H-imidazol-2-yl)methyl)-8,9,10,11-tetrahydropyrido[4′,3′:4,5]thieno[3,2-e][1,2,4]triazolo[1,5-c]pyrimidin-5(6H)-one]",>7
14,"COc1ccc(Cn2c(=O)n3ncnc3c3cc(CN4CCN(c5ccccc5F)CC4)sc32)cc1 [Example 186, 8-((4-(2-Fluorophenyl)piperazin-1-yl)methyl)-6-(4-methoxybenzyl)thieno[3,2-e][1,2,4]triazolo[1,5-c]pyrimidin-5(6H)-one]",>7
15,"COc1ccc(Cn2c(=O)n3ncnc3c3c(C)c(CN4CCN(C(C)C)CC4)sc32)cc1 [Example 64, 8-((4-Isopropylpiperazin-1-yl)methyl)-6-(4-methoxybenzyl)-9-methylthieno[3,2-e][1,2,4]triazolo[1,5-c]pyrimidin-5(6H)-one]",>7
16,"COc1ccc(Cn2c(=O)n3ncnc3c3c(C)c(CN(C)CC4CCOC4)sc32)cc1 (centres unmarked) [Example 59, 6-(4-Methoxybenzyl)-9-methyl-8-((methyl((tetrahydrofuran-3-yl)methyl)amino)methyl)thieno[3,2-e][1,2,4]triazolo[1,5-c]pyrimidin-5(6H)-one]",>7
17,"COc1ccc(Cn2c(=O)n3ncnc3c3c4c(sc32)CN(CC2CCCOC2)CC4)cc1 (centres unmarked) [Example 134, 6-(4-Methoxybenzyl)-9-((tetrahydro-2H-pyran-3-yl)methyl)-8,9,10,11-tetrahydropyrido[4′,3′:4,5]thieno[3,2-e][1,2,4]triazolo[1,5-c]pyrimidin-5(6H)-one]",>7
18,"COc1ccc(Cn2c(=O)n3ncnc3c3c4c(sc32)CN(C(=O)[C@@H]2CCOC2)CC4)cc1 [Example 169, (R)-6-(4-Methoxybenzyl)-9-(tetrahydrofuran-3-carbonyl)-8,9,10,11-tetrahydropyrido[4′,3′:4,5]thieno[3,2-e][1,2,4]triazolo[1,5-c]pyrimidin-5(6H)-one]",>7
